Tests used:
GPR6 = target: T1, GPR6 (Homo sapiens, UniProt P46095); assay: GPR6 antagonist functional cAMP assay (LANCE Ultra cAMP TR-FRET, CHO cells stably expressing GPR6); type: cell-based
T1 construct: expressed in transfected cells; host or cells: CHO cells
Procedure, shortened: (§1)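 Compounds, at 0.1% final DMSO, acted on the cells for 45 minutes at 37 °C in the presence of the phosphodiesterase inhibitor Ro 20-1724 (150 μM). After lysis and detection, plates were shaken 1 h at room temperature and emission at 665 nm was recorded. Normalized data gave IC50 values.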

GPR3 = target: T2, GPR3 (Homo sapiens, UniProt P46089); assay: GPR3 antagonist functional cAMP assay (LANCE Ultra cAMP TR-FRET, CHO cells stably expressing GPR3); type: cell-based
T2 construct: expressed in transfected cells; host or cells: CHO cells
T2 sequence (P46089 whole entry, species assumed): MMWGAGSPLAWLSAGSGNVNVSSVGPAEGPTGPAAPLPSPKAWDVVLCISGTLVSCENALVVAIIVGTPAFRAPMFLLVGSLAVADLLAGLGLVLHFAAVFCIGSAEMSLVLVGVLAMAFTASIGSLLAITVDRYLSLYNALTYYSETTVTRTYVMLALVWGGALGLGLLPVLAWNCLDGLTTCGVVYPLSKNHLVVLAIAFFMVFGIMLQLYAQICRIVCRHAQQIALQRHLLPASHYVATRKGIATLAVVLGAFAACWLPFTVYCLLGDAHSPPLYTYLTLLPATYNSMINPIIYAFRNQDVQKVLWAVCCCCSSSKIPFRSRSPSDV
Procedure, shortened: as §1

[1] = CHO cells stably expressing GPR6, cAMP assay (Example 24)
[2] = CHO cells stably expressing GPR3, cAMP assay (Example 24)
[3] = CHO cells stably expressing GPR6, cAMP assay
[4] = CHO cells stably expressing GPR3, cAMP assay
[5] = procedure as described in Example 24

T1 sequence (P46095 whole entry): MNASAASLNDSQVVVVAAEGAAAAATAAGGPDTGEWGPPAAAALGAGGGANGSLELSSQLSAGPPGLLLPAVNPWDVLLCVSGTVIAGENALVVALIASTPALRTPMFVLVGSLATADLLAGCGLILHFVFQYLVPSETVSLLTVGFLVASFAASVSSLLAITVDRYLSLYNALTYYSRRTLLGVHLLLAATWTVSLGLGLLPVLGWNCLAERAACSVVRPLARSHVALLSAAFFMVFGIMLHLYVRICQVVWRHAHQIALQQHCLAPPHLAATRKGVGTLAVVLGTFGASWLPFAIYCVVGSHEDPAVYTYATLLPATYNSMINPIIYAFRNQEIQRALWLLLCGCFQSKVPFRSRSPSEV

| IC50 (GPR6; procedure of Example 24) | IC50 (GPR3; procedure of Example 24) | further results | Compound |
| --- | --- | --- | --- |
| 100 to 1000 nM | 1000 to 30000 nM | – | CCn1cc(-c2nc3cc(C(C)(O)C(C)(C)O)ncc3nc2N2CCC(Oc3ccc(F)cc3F)CC2)cn1 (single isomer, unassigned) [Compound 740] |
| 100 to 1000 nM | 1000 to 30000 nM | – | CC(C)(O)[C@@](C)(O)c1cc2nc(-c3cnn(CF)c3)c(N3CCN(Cc4ccc(F)cc4F)CC3)nc2cn1 (single isomer, unassigned) [Compound 711] |
| 1000 to 30000 nM | 1000 to 30000 nM | – | Fc1ccc(F)c(CN2CCN(c3nc4cnc(-c5cnn(C(F)F)c5)cc4nc3-c3cnn(C(F)F)c3)CC2)c1 [Compound 774, 2,7-bis [1-(difluoromethyl)-4-pyrazolyl]-3-{4-[(2,5-difluorophenyl)methyl]-1-piperazinyl}-1,4,6-triazanaphthalene] |
| – | – | IC50 (GPR6; [1]): 100 to 1000 nM; IC50 (GPR3; [2]): 1000 to 30000 nM | C[C@@H](O)[C@@H](O)c1cc2nc(N3CCC(Oc4ccc(F)cc4F)CC3)c(-c3cnn(C)c3)nc2cn1 (single isomer, unassigned) [Compound 472] |
| – | – | IC50 (GPR6; [3]): ≥ 30000 nM; IC50 (GPR3; [4]): 100 to 1000 nM | CC(=O)N1CCc2nc(N3CCN(Cc4cnn(C)c4)CC3)c(-c3cnn(C)c3)nc2C1 [Compound 526, 1-[3-(1-methyl-4-pyrazolyl)-2-{4-[(1-methyl-4-pyrazolyl)methyl]-1-piperazinyl}-5,6,7,8-tetrahydro-1,4,6-triaza-6-naphthyl]-1-ethanone] |
| – | – | IC50 (GPR6; [1]): 100 to 1000 nM; IC50 (GPR3; [2]): 1000 to 30000 nM | CC(=O)N1Cc2nc(-c3cnn(C)c3)c(N3CCC(Oc4ccc(F)cc4F)CC3)nc2CC1C (single isomer, unassigned) [Compound 446] |
| – | – | IC50 (GPR6; [1]): < 100 nM; IC50 (GPR3; [2]): 1000 to 30000 nM | CC(C)S(=O)(=O)N1CCc2nc(N3CCC(Oc4ccc(F)cc4F)CC3)c(-c3cn[nH]c3)nc2C1 [Compound 150, 4-(2,4-difluorophenoxy)-1-[6-(propane-2-sulfonyl)-3-(1H-pyrazol-4-yl)-5H,6H,7H,8H-pyrido[3,4-b]pyrazin-2-yl]piperidine] |
| – | – | IC50 (GPR6; [3]): 100 to 1000 nM; IC50 (GPR3; [4]): 1000 to 30000 nM | CC(C)(O)C(C)(O)c1cc2nc(N3CCN(Cc4ccc(F)cc4F)CC3)c(-c3cnn(C4CC4)c3)nc2cn1 (stereo not drawn) [Compound 605, 2-[3-(1-cyclopropyl-4-pyrazolyl)-2-{4-[(2,4-difluorophenyl)methyl]-1-piperazinyl}-1,4,6-triaza-7-naphthyl]-3-methyl-2,3-butanediol] |
| 1000 to 30000 nM | ≥ 30000 nM | – | CC(=O)N1CCc2nc(N3CCN(C(=O)c4ccc(F)cc4C#N)CC3)c(-c3cnn(C)c3)nc2C1 [Compound 286, 2-{4-[6-acetyl-3-(1-methyl-1H-pyrazol-4-yl)-5H,6H,7H,8H-pyrido[3,4-b]pyrazin-2-yl]piperazine-1-carbonyl}-5-fluorobenzonitrile] |
| – | – | IC50 (GPR6; [3]): ≥ 30000 nM; IC50 (GPR3; [4]): ≥ 30000 nM | CC(=O)N1CCc2nc(N3CCN(Cc4ccn[nH]4)CC3)c(-c3cnn(C)c3)nc2C1 [Compound 524, 1-[3-(1-methyl-4-pyrazolyl)-2-{4-[(5-pyrazolyl)methyl]-1-piperazinyl}-5,6,7,8-tetrahydro-1,4,6-triaza-6-naphthyl]-1-ethanone] |
| 100 to 1000 nM | 1000 to 30000 nM | – | CC(C)(O)C(C)(O)c1cc2nc(-c3cnn(C4CC4)c3)c(N3CCC(Oc4ccc(F)cc4F)CC3)nc2cn1 (single isomer, unassigned) [Compound 721] |
| < 100 nM | 100 to 1000 nM | – | CC(C)(O)[C@@H](O)c1cc2nc(-c3cnn(C(F)F)c3)c(N3CCN(Cc4ccccc4F)CC3)nc2cn1 (single isomer, unassigned) [Compound 686] |
| – | – | IC50 (GPR6; [1]): 100 to 1000 nM; IC50 (GPR3; [2]): 1000 to 30000 nM | CCn1cc(-c2nc3c(nc2N2CCC(Oc4ccc(F)cc4F)CC2)CCN(S(C)(=N)=O)C3)cn1 (stereo not drawn) [Compound 485, 2-(4-(2,4-difluorophenoxy)piperidin-1-yl)-3-(1-ethyl-1H-pyrazol-4-yl)-6-(S-methylsulfonimidoyl)-5,6,7,8-tetrahydropyrido[3,4-b]pyrazine] |
| 100 to 1000 nM | 1000 to 30000 nM | – | CC(C)(O)[C@@](C)(O)c1cc2nc(N3CCC(Oc4ccc(F)cc4F)CC3)c(-c3cnn(C4CC4)c3)nc2cn1 (single isomer, unassigned) [Compound 665] |
| 1000 to 30000 nM | 1000 to 30000 nM | – | Cn1cc(-c2nc3cnc(C4CC4CO)cc3nc2N2CCC(Oc3ccc(F)cc3F)CC2)cn1 (stereo not drawn) [Compound 768, (2-{2-[4-(2,4-difluorophenoxy)-1-piperidyl]-3-(1-methyl-4-pyrazolyl)-1,4,6-triaza-7-naphthyl}cyclopropyl)methanol] |
| 1000 to 30000 nM | 1000 to 30000 nM | – | CC(=O)N1CCc2nc(N3CCN(Cc4ccc(OC(F)F)cc4F)CC3)c(-c3cnn(C)c3)nc2C1 [Compound 358, 1-[2-(4-{[4-(difluoromethoxy)-2-fluorophenyl]methyl}piperazin-1-yl)-3-(1-methyl-1H-pyrazol-4-yl)-5H,6H,7H,8H-pyrido[3,4-b]pyrazin-6-yl]ethan-1-one] |
| – | – | IC50 (GPR6; [5]): 1000 to 30000 nM; IC50 (GPR3; [5]): 1000 to 30000 nM | CN(c1ccc(F)cc1F)C1CCN(c2nc3ccncc3nc2-c2cn[nH]c2)CC1 [Compound 55, 1-(3-(1H-pyrazol-4-yl)pyrido[3,4-b]pyrazin-2-yl)-N-(2,4-difluorophenyl)-N-methylpiperidin-4-amine] |
| 100 to 1000 nM | 1000 to 30000 nM | – | Nc1cc2nc(-c3cnn(CF)c3)c(N3CCN(Cc4ccc(F)cc4F)CC3)nc2cn1 [Compound 794, 3-{4-[(2,4-difluorophenyl)methyl]-1-piperazinyl}-2-[1-(fluoromethyl)-4-pyrazolyl]-1,4,6-triaza-7-naphthylamine] |
| 100 to 1000 nM | 1000 to 30000 nM | – | CC(=O)N1CCc2nc(N3CCC(Oc4ccc(F)cc4F)CC3)c(-c3ccc(F)c(N)n3)nc2C1 [Compound 372, 1-{3-(6-amino-5-fluoro-2-pyridyl)-2-[4-(2,4-difluorophenoxy)-1-piperidyl]-5,6,7,8-tetrahydro-1,4,6-triaza-6-naphthyl}-1-ethanone] |
| – | – | IC50 (GPR6; [1]): ≥ 30000 nM; IC50 (GPR3; [2]): 1000 to 30000 nM | CC(=O)N1CCc2nc(N3CCC(C(=O)Nc4ccc(F)cc4)C3)c(-c3cnn(C)c3)nc2C1 (stereo not drawn) [Compound 391, 1-[6-acetyl-3-(1-methyl-1H-pyrazol-4-yl)-5H,6H,7H,8H-pyrido[3,4-b]pyrazin-2-yl]-N-(4-fluorophenyl)pyrrolidine-3-carboxamide] |
| 100 to 1000 nM | 1000 to 30000 nM | – | CC(C)(O)C(C)(O)c1cc2nc(N3CCN(Cc4ccccc4F)CC3)c(-c3cnn(C(F)F)c3)nc2cn1 (stereo not drawn) [Compound 634, 2-{3-[1-(difluoromethyl)-4-pyrazolyl]-2-{4-[(o-fluorophenyl)methyl]-1-piperazinyl}-1,4,6-triaza-7-naphthyl}-3-methyl-2,3-butanediol] |
| 1000 to 30000 nM | ≥ 30000 nM | – | CC(=O)N1CCc2nc(N3CCN(C(c4ccc(F)cc4F)C(F)(F)F)CC3)c(-c3cnn(C)c3)nc2C1 (stereo not drawn) [Compound 731, 1-(2-{4-[1-(2,4-difluorophenyl)-2,2,2-trifluoroethyl]-1-piperazinyl}-3-(1-methyl-4-pyrazolyl)-5,6,7,8-tetrahydro-1,4,6-triaza-6-naphthyl)-1-ethanone] |
| 100 to 1000 nM | 1000 to 30000 nM | – | CC(=O)N1CCc2nc(N3CCC(=Cc4ccccc4)CC3)c(-c3cnn(C)c3)nc2C1 [Compound 646, 1-[2-(4-benzylidene-1-piperidyl)-3-(1-methyl-4-pyrazolyl)-5,6,7,8-tetrahydro-1,4,6-triaza-6-naphthyl]-1-ethanone] |
| – | – | IC50 (GPR6; [3]): 100 to 1000 nM; IC50 (GPR3; [4]): ≥ 30000 nM | CC(=O)N1CCc2nc(N3CCN(C(CO)(CO)c4cc(F)ccc4F)CC3)c(-c3cnn(C)c3)nc2C1 [Compound 551, 1-(2-{4-[1-(2,5-difluorophenyl)-2-hydroxy-1-(hydroxymethyl)ethyl]-1-piperazinyl}-3-(1-methyl-4-pyrazolyl)-5,6,7,8-tetrahydro-1,4,6-triaza-6-naphthyl)-1-ethanone] |
| – | – | IC50 (GPR6; [1]): 100 to 1000 nM; IC50 (GPR3; [2]): 1000 to 30000 nM | CCS(=O)(=O)N1CCc2nc(N3CCC(Oc4ccc(F)cc4F)CC3)c(-c3cnn(C4CCCCO4)c3)nc2C1 (stereo not drawn) [Compound 177, 4-(2,4-difluorophenoxy)-1-[6-(ethanesulfonyl)-3-[1-(oxan-2-yl)-1H-pyrazol-4-yl]-5H,6H,7H,8H-pyrido[3,4-b]pyrazin-2-yl]piperidine] |
| – | – | IC50 (GPR6; [3]): 100 to 1000 nM; IC50 (GPR3; [4]): 1000 to 30000 nM | CC(C)(O)C(O)c1cc2nc(-c3cnn(C4CC4)c3)c(N3CCN(Cc4ccc(F)cc4F)CC3)nc2cn1 (single isomer, unassigned) [Compound 601] |
| < 100 nM | 1000 to 30000 nM | – | CC(C)(O)[C@@H](O)c1cc2nc(N3CCC(=Cc4ccc(F)cc4F)CC3)c(-c3cnn(CF)c3)nc2cn1 (single isomer, unassigned) [Compound 785] |
| – | – | IC50 (GPR6; [1]): 1000 to 30000 nM; IC50 (GPR3; [2]): 1000 to 30000 nM | COc1cnnc(-c2nc3c(nc2N2CCC(Oc4ccc(F)cc4F)CC2)CCN(C(C)=O)C3)c1 [Compound 192, 1-{2-[4-(2,4-difluorophenoxy)piperidin-1-yl]-3-(5-methoxypyridazin-3-yl)-5H,6H,7H,8H-pyrido[3,4-b]pyrazin-6-yl}ethan-1-one] |
| ≥ 30000 nM | 100 to 1000 nM | – | CC(=O)N1CCc2nc(N3CCCC(Oc4cc(F)ccc4F)C3)c(-c3cnn(C)c3)nc2C1 (stereo not drawn) [Compound 339, 1-{2-[3-(2,5-difluorophenoxy)piperidin-1-yl]-3-(1-methyl-1H-pyrazol-4-yl)-5H,6H,7H,8H-pyrido[3,4-b]pyrazin-6-yl}ethan-1-one] |
| – | – | IC50 (GPR6; [1]): 100 to 1000 nM; IC50 (GPR3; [2]): 1000 to 30000 nM | CC(C)(O)C(O)c1cc2nc(N3CCC(Oc4ccc(F)cc4F)CC3)c(-c3cnn(C4CC4)c3)nc2cn1 (stereo not drawn) [Compound 469, 1-[3-(1-cyclopropyl-1H-pyrazol-4-yl)-2-[4-(2,4-difluorophenoxy)piperidin-1-yl]pyrido[3,4-b]pyrazin-7-yl]-2-methylpropane-1,2-diol] |
